Experimental data published in patent US5993846A, “Bioadhesive emulsion preparations for enhanced drug delivery” (Pharmos Corporation, priority 1998, dated 1999).

Test system: blood clotting
Type: in vivo, Male Sprague Dawley rats
Procedure: Clotting time of blood droplets obtained by tail […] used to evaluate the systemic effect of LMWH following intracolonic (i.c.) or intravenous (i.v.) treatment of rats. Male Sprague Dawley rats (200-300 g) were used for all of these experiments. Following preliminary studies, experiments were performed between 8:00-13:00 hours in order to reduce diurnal changes in responsiveness to heparins. Rats were anesthetized with 0.3 ml […] (2:1), weighed, and the initial blood clotting time was determined. Each rat was then treated with either Fragmin or control vehicle (i.v. or i.c.). Intravenous treatment was performed by exposing the femoral […] and injecting in the direction of blood flow. Intracolonic treatment was performed by opening the peritoneal cavity at the midline, locating the secum, and injecting into the large intestine, approximately 2 cm from the secum. The time of treatment was considered as T. At the indicated intervals, blood clotting time was determined. The pharmacological activity, denoted PA %, was used to evaluate the relative effect of various routes of administration and dose levels on blood clotting time. PA % was calculated for the individual rats and the values presented are the mean of each group. […] Blood clotting was measured by […] […] The clotting time was measured with a stop watch that was started when the drops were collected.

Low molecular weight heparin [LMWH]
dose-response of blood clotting time and maximal effect, ME % (i.v., groups A-C, FIG. 4): approximately linear dose-response | TMAX of blood clotting time (rat, in vivo): 1.5 h
